Results: the supplement of paper PMC11208160

test: recombinant barcode read abundance after kanamycin selection (control-corrected) (log10(CPM+1)); higher = more efficient recombination; sequences stand for … in AGTGCAGAGAAAATCGGCCAGTTTTCTCTGCCTGCAGTCCGCATGCCGT…AGATTTATGCAGCGGACTGCCTTTCTCCCAAAGTGATAAACCGGACAGTATCATGGACCGGTTTTCCCGGTAATCCGTATTTGCAAGGTTGGTTTCACT; site = the 11-nt target
How it was run: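 Two replicates per condition were plated: chloramphenicol/ampicillin LB agar for the control, and chloramphenicol/ampicillin/kanamycin with 0.1 mM IPTG for selection. The pooled E. coli screen behind them paired targets with IS621 bridge RNA target-binding loops. Recombination efficiency is expressed from averaged, control-corrected barcode counts per million at recombinant junctions, as log10(CPM+1).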
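Note: IS621 recombinase and bridge RNA in Escherichia coli cells.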

Sequence	recombinant barcode read abundance (log10)
GGACCTCCTTGGGTTCTAACCTGTTGCCT (site GGACCTCCTAA)	0.336
GGACCTCCTTGGGTTCTAACCTGTTGCCT (site GGACCTCCTAC)	0.251
GGACCTCCTTGGGTTCTAACCTGTTGCCT (site GGACCTCCTAG)	1.32
GGACCTCCTTGGGTTCTAACCTGTTGCCT (site GGACCTCCTAT)	0.524
GGACGACCTTGGGTTCTAACCTGTTGCCT (site GGACGACCTAG)	2.26
GGACGACCTTGGGTTCTAACCTGTTGCCT (site GGACGCCCTAG)	0.102
GGACGACCTTGGGTTCTAACCTGTTGCCT (site GGACGGCCTAG)	0.412
GGACGACCTTGGGTTCTAACCTGTTGCCT (site GGACGTCCTAG)	0.163
GGACGTGCTTGGGTTCTAACCTGTTGCCT (site CTCTCGTCTCC)	0.0482
GGACGTGCTTGGGTTCTAACCTGTTGCCT (site GGACGTGCTAG)	1.92
GGACTAACTTGGGTTCTAACCTGTTGCCT (site AGACTAACTAA)	0.126
GGACTAACTTGGGTTCTAACCTGTTGCCT (site GGACTAACTAG)	1.95
GGAGAGACTTGGGTTCTAACCTGTTGCAT (site ACGTGTCCTCC)	0.149
GGAGAGACTTGGGTTCTAACCTGTTGCAT (site GGAGAGACTAT)	2.79
GGAGATTCTTGGGTTCTAACCTGTTGCCT (site GGAGATTCTAG)	2.22
GGAGATTCTTGGGTTCTAACCTGTTGCCT (site GGAGTTGCTAG)	0.0142
GGAGCTCCTTGGGTTCTAACCTGTTGCCA (site CGAGCTCCTGG)	0.082
GGAGCTCCTTGGGTTCTAACCTGTTGCCA (site GGAGCTCCTTG)	0.371
GGAGGGACTTGGGTTCTAACCTGTTGCGT (site GGAGGGACTAC)	2.97
GGAGGGACTTGGGTTCTAACCTGTTGCGT (site GGTCGGACTAC)	0.0283
GGAGTCACTTGGGTTCTAACCTGTTGCGG (site GGAGTCACTCC)	2.69
GGAGTCACTTGGGTTCTAACCTGTTGCGG (site TTGACACCTAG)	0.189

Sequence	recombinant barcode read abundance (log10)
GGAGTGACTTGGGTTCTAACCTGTTGCTA (site GGAGTGACTAA)	0.183
GGAGTGACTTGGGTTCTAACCTGTTGCTA (site GGAGTGACTTA)	1.61
GGATAGCCTTGGGTTCTAACCTGTTGCTT (site GGATAGCCTAA)	0.939
GGATAGCCTTGGGTTCTAACCTGTTGCTT (site GGATGGACTAA)	0.17
GGATATACTTGGGTTCTAACCTGTTGCCT (site GGATATACTAG)	1.47
GGATATACTTGGGTTCTAACCTGTTGCCT (site GGATTTACTAG)	0.186
GGATATCCTTGGGTTCTAACCTGTTGCTT (site CAGGTGACTCC)	0
GGATATCCTTGGGTTCTAACCTGTTGCTT (site GGATATCCTAA)	0.284
GGATCCTCTTGGGTTCTAACCTGTTGCCG (site GGATCCTCTCG)	1.45
GGATCCTCTTGGGTTCTAACCTGTTGCCG (site GTTTCCTCTCG)	0.0317
GGATGCACTTGGGTTCTAACCTGTTGCCA (site GGATACACTTG)	0.237
GGATGCACTTGGGTTCTAACCTGTTGCCA (site GGATCCACTTG)	0.00874
GGATGCACTTGGGTTCTAACCTGTTGCCA (site GGATGCACTTG)	0.953
GGATGCACTTGGGTTCTAACCTGTTGCCA (site GGATTCACTTG)	0.319
GGATGTCCTTGGGTTCTAACCTGTTGCGT (site CTATGTCCTAC)	0.29
GGATGTCCTTGGGTTCTAACCTGTTGCGT (site GGATGTCCTAC)	1.95
GGATTCACTTGGGTTCTAACCTGTTGCCA (site GGATACACTTG)	0.0986
GGATTCACTTGGGTTCTAACCTGTTGCCA (site GGATCCACTTG)	0.0631
GGATTCACTTGGGTTCTAACCTGTTGCCA (site GGATGCACTTG)	0.925
GGATTCACTTGGGTTCTAACCTGTTGCCA (site GGATTCACTTG)	0.992
GGCACGACTTGGGTTCTAACCTGTTGCCT (site GGCACAACTAG)	0.274
GGCACGACTTGGGTTCTAACCTGTTGCCT (site GGCACCACTAG)	0.221

Sequence	recombinant barcode read abundance (log10)
GGCACGACTTGGGTTCTAACCTGTTGCCT (site GGCACGACTAG)	0.323
GGCACGACTTGGGTTCTAACCTGTTGCCT (site GGCACTACTAG)	0.0541
GGCACTCCTTGGGTTCTAACCTGTTGCCT (site GGCACTCCTAG)	0.351
GGCACTCCTTGGGTTCTAACCTGTTGCCT (site GGCATTCCTAG)	0.171
GGCACTGCTTGGGTTCTAACCTGTTGCCT (site GGCACAGCTAG)	0.332
GGCACTGCTTGGGTTCTAACCTGTTGCCT (site GGCACCGCTAG)	0.123
GGCACTGCTTGGGTTCTAACCTGTTGCCT (site GGCACGGCTAG)	0.189
GGCACTGCTTGGGTTCTAACCTGTTGCCT (site GGCACTGCTAG)	0.34
GGCAGATCTTGGGTTCTAACCTGTTGCTT (site GGCAGATCTAA)	0.193
GGCAGATCTTGGGTTCTAACCTGTTGCTT (site GGCAGCTCTAA)	0.043
GGCAGATCTTGGGTTCTAACCTGTTGCTT (site GGCAGGTCTAA)	0.0248
GGCAGATCTTGGGTTCTAACCTGTTGCTT (site GGCAGTTCTAA)	0.9
GGCAGTCCTTGGGTTCTAACCTGTTGCCG (site GGCAGACCTAG)	0.169
GGCAGTCCTTGGGTTCTAACCTGTTGCCG (site GGCAGTCCTCG)	0.364
GGCAGTCCTTGGGTTCTAACCTGTTGCTT (site GGCAGTCCTAA)	0.336
GGCAGTCCTTGGGTTCTAACCTGTTGCTT (site GGCAGTCCTAG)	0.252
GGCCGGCCTTGGGTTCTAACCTGTTGCCT (site GGCCGGACTAG)	0.0681
GGCCGGCCTTGGGTTCTAACCTGTTGCCT (site GGCCGGCCTAG)	0.128
GGCCGGCCTTGGGTTCTAACCTGTTGCCT (site GGCCGGGCTAG)	1.02
GGCCGGCCTTGGGTTCTAACCTGTTGCCT (site GGCCGGTCTAG)	0.191
GGCCGGTCTTGGGTTCTAACCTGTTGCCT (site GGCCGGACTAG)	0
GGCCGGTCTTGGGTTCTAACCTGTTGCCT (site GGCCGGCCTAG)	0.248

Sequence	recombinant barcode read abundance (log10)
GGCCGGTCTTGGGTTCTAACCTGTTGCCT (site GGCCGGGCTAG)	0.0483
GGCCGGTCTTGGGTTCTAACCTGTTGCCT (site GGCCGGTCTAG)	1.78
GGCGTAGCTTGGGTTCTAACCTGTTGCCT (site GACGTAGCTAG)	0.416
GGCGTAGCTTGGGTTCTAACCTGTTGCCT (site GCCGTAGCTAG)	0.624
GGCGTAGCTTGGGTTCTAACCTGTTGCCT (site GGCGTAGCTAG)	2.37
GGCGTAGCTTGGGTTCTAACCTGTTGCCT (site GTCGTAGCTAG)	0.227
GGCTCCTCTTGGGTTCTAACCTGTTGCCT (site AGCTCCTCTAG)	0.849
GGCTCCTCTTGGGTTCTAACCTGTTGCCT (site CGCTCCTCTAG)	0.0966
GGCTCCTCTTGGGTTCTAACCTGTTGCCT (site GGCTCCTCTAG)	0.733
GGCTCCTCTTGGGTTCTAACCTGTTGCCT (site TGCTCCTCTAG)	0.0949
GGCTTACCTTGGGTTCTAACCTGTTGCCT (site AGCTTACCTAG)	0.0239
GGCTTACCTTGGGTTCTAACCTGTTGCCT (site CGCTTACCTAG)	0.0687
GGCTTACCTTGGGTTCTAACCTGTTGCCT (site GGCTTACCTAG)	0.556
GGCTTACCTTGGGTTCTAACCTGTTGCCT (site TGCTTACCTAG)	0.395
GGCTTGTCTTGGGTTCTAACCTGTTGCCT (site GGCATGTCTAG)	0.0663
GGCTTGTCTTGGGTTCTAACCTGTTGCCT (site GGCTTGTCTAG)	0.655
GGGAACGCTTGGGTTCTAACCTGTTGCCT (site GGGAACGCTAG)	2.85
GGGAACGCTTGGGTTCTAACCTGTTGCCT (site GGGAATGCTAG)	0.0432
GGGACATCTTGGGTTCTAACCTGTTGCCT (site GGGACATCTAG)	0.987
GGGACATCTTGGGTTCTAACCTGTTGCCT (site GGGGCATCTAG)	0.015
